Experimental data: ChEMBL document CHEMBL1155639, “Synthesis of 16,18-dihydroxycleroda-3,13Z-dien-16,15-olide, (+)-16-hydroxycleroda-3,13Z-dien-16,15-olide, and (-)-hydroxyhalima-5(10),13-dien-16,15-olide from (+)-hardwickiic acid” (2000)

Tested on: Mycobacterium tuberculosis
Assay: Antitubercular activity against Mycobacterium tuberculosis at 12.5 ug/mL by TAACF method
Type: functional

Q: `CC1=CCC[C@H]2[C@](C)(CCC3=CC(=O)OC3O)[C@@H](C)CC[C@]12C` (stereo partly specified) was tested. Which inhibition at 12.5 µg/mL did it give?
A: 85%
